Assay results reported in patent publication US10669271B2, “Heterocyclic compounds as immunomodulators” (Incyte Corporation, priority 2018, dated 2020).

How the values were obtained:
[1] = target: PD-L1 (Homo sapiens (Human), UniProt Q9NZQ7); assay: PD-L1 whole blood internalization assay; type: cell-based; conditions: 1 ng/ml human interferon γ, PD-L1 expression on CD14+ cells, read-out: Whole Blood (24 HR) IC50
Description: Example D. PD-L1 Whole Blood Internalization Assay
To determine PD-L1 internalization in human whole blood, normal human blood (Biological Specialty Corp, Colmar. Pa.) was incubated in the presence or absence of a concentration range of test compounds and 1 ng/ml human interferon γ (R&D Systems Inc. Minn. […] Blood was then stained with PD-L1 (MIH1, eBioscience; or BD Biosciences San Jose, Calif.), CD14 (Life Technologies, Carlsbad, Calif.) for 30 minutes in the dark at room temperature. Whole Blood/red cells were lysed/fixed (lysis buffer BD Biosciences) for 5 minutes at 37° C. in the dark and then centrifuged at 1600 RPM for 5 minutes. Cells were resuspended in Stain Buffer (BD Bioscience, San Jose, Calif.) and transferred into 96 well round bottom plates (Corning). Cells were gated on CD14+(BD Biosciences) and PD-L1 expression determined by mean fluorescence intensity (MFI) (BD LSRFortessa™ X-20). IC50 determination was performed by fitting the curve of compound percent inhibition versus the log of the compound concentration using the GraphPad Prism 7.0 software.

[2] = tested on: PD-L1 aAPC/CHO-K1 cells and Jurkat-PD-1-NFAT effector cells; assay: Nuclear factor of activated T-cells (NFAT) assay; type: cell-based; conditions: Cricetulus griseus; PD-L1 aAPC/CHO-K1 cells with Jurkat-PD-1-NFAT effector cells, 24 hours
Description: Example C. Nuclear Factor of Activated T-Cells (NFAT) Assay
PD-L1 aAPC/CHO-Klcells (Promega) were maintained in F-12 medium with addition of 10% FBS, 200 μg/ml Hygromycin B, 250 μg/ml Geneticin (G418). Jurkat-PD-1-NFAT effector cells (Promega) were cultured in RPMI 1640 medium supplemented with 10% FBS, 100 μg/ml Hygromycin B, 500 μg/ml G418. The culture media of PD-L1 aAPC/CHO-K1 cells were first replaced with assay medium (RPMI1640 medium with 1% FBS). The PD-L1 aAPC/CHO-K1 cells were then added in a white 384-well white clear bottom assay plate (CELLCOAT® Tissue Culture Plates, Greiner Bio-One) at 8000 per well in 10 μL assay medium. Test compounds were prepared by serial dilution in DMSO and 0.8 μL test compounds in DMSO were first transferred to the 384 REMP plate well (Thermofisher) by PlateMate Plus (Thermofisher) followed with addition of 50 μL plating medium. 5 μL compounds in the assay medium were transferred to the cells with 0.4% DMSO in the final assay at 2 μM. After removing the culture media, 10,000 Jurkat-PD-1-NFAT effector cells in 5 μL assay medium was dispensed into each well. The assay plate was incubated at 37° C., 5% CO2 for 24 hours. After the assay plate was equilibrated to room temp for 15 minutes, 20 µL/well of Bio-Glo™ reagent (Promega) were added. After 8 minutes incubation at room temperature, luminescence was read at with Pherastar microplate reader (BMG Labtech). The fold of induction (FOI) was calculated based on the ratio of luminescence normalized to the DMSO wells within each assay plate. The maximum percentage of induction was reported based on the ratio between the highest FOI of each compound and the maximum FOI of control compound within each assay plate. Wells with DMSO were served as the negative controls and wells containing control compound with the highest FOI were used as positive controls. EC50 determination was performed by fitting the curve of percent control activity versus the log of the compound concentration using the GraphPad Prism 6.0 software.

[3] = target: PD-1/PD-L1 (Homo sapiens (Human), UniProt Q9NZQ7); assay: Homogeneous Time-Resolved Fluorescence (HTRF) PD-1/PD-L1 binding assay; conditions: recombinant human PD-1 and PD-L1, 25° C., pH 7.4
Chain of PD-1/PD-L1 (Q9NZQ7 19-238): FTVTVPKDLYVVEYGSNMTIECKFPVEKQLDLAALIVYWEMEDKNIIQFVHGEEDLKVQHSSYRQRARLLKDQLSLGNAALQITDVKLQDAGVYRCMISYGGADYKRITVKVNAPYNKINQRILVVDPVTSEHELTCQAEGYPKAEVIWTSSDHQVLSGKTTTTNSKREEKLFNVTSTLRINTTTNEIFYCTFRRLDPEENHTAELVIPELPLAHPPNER
Description: Example A. Homogeneous Time-Resolved Fluorescence (HTRF) PD-1/PD-L1 Binding Assay
The assays were conducted in a standard black 384-well polystyrene plate with a final volume of 20 μL. Inhibitors were first serially diluted in DMSO and then added to the plate wells before the addition of other reaction components. The final concentration of DMSO in the assay was 1%. The assays were carried out at 25° C. in the PBS buffer (pH 7.4) with 0.05% Tween-20 and 0.1% BSA. Recombinant human PD-L1 protein (19-238) with a His-tag at the C-terminus was purchased from AcroBiosystems (PD1-H5229). Recombinant human PD-1 protein (25-167) with Fc tag at the C-terminus was also purchased from AcroBiosystems (PD1-H5257). PD-L1 and PD-1 proteins were diluted in the assay buffer and 10 μL was added to the plate well. Plates were centrifuged and proteins were preincubated with inhibitors for 40 minutes. The incubation was followed by the addition of 10 μL of HTRF detection buffer supplemented with Europium cryptate-labeled anti-human IgG (PerkinElmer-AD0212) specific for Fc and anti-His antibody conjugated to SureLight®-Allophycocyanin (APC, PerkinElmer-AD0059H). After centrifugation, the plate was incubated at 25° C. for 60 min. before reading on a PHERAstar FS plate reader (665 nm/620 nm ratio). Final concentrations in the assay were—3 nM PD1,10 nM PD-L1, 1 nM europium anti-human IgG and 20 nM anti-His-Allophycocyanin. IC50 determination was performed by fitting the curve of percent control activity versus the log of the inhibitor concentration using the GraphPad Prism 5.0 software.

[4] = tested on: U2OS/PD-L1 cells and Jurkat-PD-1-SHP cells; assay: Src homology region 2 domain-containing phosphatase (SHP) assay; type: cell-based; conditions: Homo sapiens; U2OS/PD-L1 cells with Jurkat-PD-1-SHP cells, 2 hours
Description: Example B. Src Homology Region 2 Domain-Containing Phosphatase (SHP) Assay
U2OS/PD-L1 cells (DiscoveRx Corporation) were maintained in McCoy's 5A medium with addition of 10% FBS, 0.25 μg/ml Puromycin. After removing the culture media, the cell medium was replaced with assay medium (RPMI1640 medium with 1% FBS). The U2OS/PD-L1 cells were then added in 384-well black clear bottom assay plate (CELLCOAT® Tissue Culture Plates, Greiner Bio-One) at 5000 cells per well in 20 μL assay medium. Test compounds were prepared by serial dilution in DMSO and 125 nL compound were first transferred to the 384 REMP plate well (Thermofisher) by ECHO liquid handler (Labcyte) followed with addition of 27.5 μL assay medium. 5 μL/well compounds in the assay medium were transferred to the cell plate with 0.05% DMSO in the final assay at 0.5 μM. Jurkat-PD-1-SHP cells (DiscoveRx Corporation) were cultured in RPMI1640 medium supplemented with 10% FBS, 250 μg/ml Hygromycin B, 500 μg/ml G418. After the replacement of culture media with assay medium, 5,000 Jurkat-PD-1-SHP cells in 20 μL were dispensed into each well. The assay plate was incubated at 37° C., 5% CO2 for 2 hours before 2.5 μL PathHunter reagent 1 (DiscoveRx Corporation) were added to each well. The assay plate was shaken for 1 min at 350 rpm in the dark followed with addition of 10 μL PathHunter reagent 2 (DiscoveRx Corporation). Chemiluminescent signal was recorded with TopCount reader (Perkin Elmer) after incubation at room temperature for 1 hour. Wells with DMSO were served as the positive controls and wells containing no cells were used as negative controls. IC50 determination was performed by fitting the curve of percentage of control activity versus the log of the compound concentration using the GraphPad Prism 6.0 software.

Chain of PD-L1 (Q9NZQ7 19-290): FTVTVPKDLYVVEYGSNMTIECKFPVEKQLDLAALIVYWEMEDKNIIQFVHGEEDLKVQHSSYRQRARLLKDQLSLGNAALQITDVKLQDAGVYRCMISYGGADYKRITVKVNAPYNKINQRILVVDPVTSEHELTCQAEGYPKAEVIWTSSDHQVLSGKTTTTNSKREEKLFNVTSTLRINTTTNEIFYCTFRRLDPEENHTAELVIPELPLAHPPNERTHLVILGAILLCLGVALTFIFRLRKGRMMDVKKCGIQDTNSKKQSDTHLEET

Row | SMILES | IC50 [1] | EC50 [2] | IC50 [3] | IC50 [4]
1 | Cc1nc(Nc2cccc(-c3cccc(-c4nc5cc(CN6CC[C@@](C)(C(=O)O)C6)cc(C#N)c5o4)c3C)c2C)c2ncc(CN3CC[C@@](C)(O)C3)cc2n1 [Example 12, (R)-1-((7-cyano-2-(3′-(7-(((R)-3-hydroxy-3-methylpyrrolidin-1-yl)methyl)-2-methylpyrido[3,2-d]pyrimidin-4-ylamino)-2,2′-dimethylbiphenyl-3-yl)benzo[d]oxazol-5-yl)methyl)-3-methylpyrrolidine-3-carboxylic Acid] | 0.01 to 0.1 µM | 0.01 to 0.1 µM | ≤ 0.01 µM | ≤ 0.01 µM
2 | Cc1c(Nc2nc(C(F)F)nc3cc(CN4CC[C@@H](O)C4)cnc23)cccc1-c1cccc(-c2nc3cc(CN4CC[C@@](C)(C(=O)O)C4)cc(C#N)c3o2)c1C [Example 18, (R)-1-((7-cyano-2-(3′-(2-(difluoromethyl)-7-(((R)-3-hydroxypyrrolidin-1-yl)methyl)pyrido[3,2-d]pyrimidin-4-ylamino)-2,2′-dimethylbiphenyl-3-yl)benzo[d]oxazol-5-yl)methyl)-3-methylpyrrolidine-3-carboxylic Acid] | 0.01 to 0.1 µM | 0.01 to 0.1 µM | ≤ 0.01 µM | ≤ 0.01 µM
3 | Cc1nc(Nc2cccc(-c3cccc(-c4nc5cc(CN6CC[C@@H](C(=O)O)C6)cc(C#N)c5o4)c3C)c2C)c2ncc(CN3CC[C@@](C)(O)C3)cc2n1 [Example 7, (R)-1-((7-cyano-2-(3′-(7-(((R)-3-hydroxy-3-methylpyrrolidin-1-yl)methyl)-2-methylpyrido[3,2-d]pyrimidin-4-ylamino)-2,2′-dimethylbiphenyl-3-yl)benzo[d]oxazol-5-yl)methyl)pyrrolidine-3-carboxylic Acid] | 0.01 to 0.1 µM | 0.01 to 0.1 µM | ≤ 0.01 µM | ≤ 0.01 µM
4 | Cc1c(Nc2nc(C(F)F)nc3cc(CN4CC[C@@H](O)C4)cnc23)cccc1-c1cccc(-c2nc3cc(CN4CCC(C(=O)O)CC4)cc(C#N)c3o2)c1C [Example 16, (R)-1-((7-cyano-2-(3′-(2-(difluoromethyl)-7-((3-hydroxypyrrolidin-1-yl)methyl)pyrido[3,2-d]pyrimidin-4-ylamino)-2,2′-dimethylbiphenyl-3-yl)benzo[d]oxazol-5-yl)methyl)piperidine-4-carboxylic Acid] | 0.01 to 0.1 µM | ≤ 0.01 µM | ≤ 0.01 µM | ≤ 0.01 µM
5 | Cc1c(Nc2nc(C3CC3)nc3cc(CN4CC[C@@H](O)C4)cnc23)cccc1-c1cccc(-c2nc3cc(CN4CC[C@@H](C(=O)O)C4)cc(C#N)c3o2)c1C [Example 28, (R)-1-((7-cyano-2-(3′-(2-cyclopropyl-7-(((R)-3-hydroxypyrrolidin-1-yl)methyl)pyrido[3,2-d]pyrimidin-4-ylamino)-2,2′-dimethylbiphenyl-3-yl)benzo[d]oxazol-5-yl)methyl)pyrrolidine-3-carboxylic Acid] | 0.1 to 0.5 µM | 0.01 to 0.1 µM | ≤ 0.01 µM | 0.01 to 0.1 µM
6 | Cc1nc(Nc2cccc(-c3cccc(-c4nc5cc(CN6CC[C@@](C)(C(=O)O)C6)cc(C#N)c5o4)c3C)c2C)c2ncc(CN[C@@H](C)CO)cc2n1 [Example 14, (R)-1-((7-cyano-2-(3′-(7-(((S)-1-hydroxypropan-2-ylamino)methyl)-2-methylpyrido[3,2-d]pyrimidin-4-ylamino)-2,2′-dimethylbiphenyl-3-yl)benzo[d]oxazol-5-yl)methyl)-3-methylpyrrolidine-3-carboxylic Acid] | 0.01 to 0.1 µM | 0.01 to 0.1 µM | ≤ 0.01 µM | ≤ 0.01 µM
7 | Cc1c(Nc2nc(C(F)F)nc3cc(CN4CC[C@@](C)(O)C4)cnc23)cccc1-c1cccc(-c2nc3cc(CN4CCC(C(=O)O)CC4)cc(C#N)c3o2)c1C [Example 30, (R)-1-((7-cyano-2-(3′-(2-(difluoromethyl)-7-((3-hydroxy-3-methylpyrrolidin-1-yl)methyl)pyrido[3,2-d]pyrimidin-4-ylamino)-2,2′-dimethylbiphenyl-3-yl)benzo[d]oxazol-5-yl)methyl)piperidine-4-carboxylic Acid] | 0.01 to 0.1 µM | ≤ 0.01 µM | ≤ 0.01 µM | ≤ 0.01 µM
8 | Cc1nc(Nc2cccc(-c3cccc(-c4nc5cc(CN6CCC(C(=O)O)CC6)cc(C#N)c5o4)c3C)c2C)c2ncc(CN3CC[C@@H](O)C3)cc2n1 [Example 1, (R)-1-((7-cyano-2-(3′-(7-((3-hydroxypyrrolidin-1-yl)methyl)-2-methylpyrido[3,2-d]pyrimidin-4-ylamino)-2,2′-dimethylbiphenyl-3-yl)benzo[d]oxazol-5-yl)methyl)piperidine-4-carboxylic Acid] | 0.01 to 0.1 µM | 0.01 to 0.1 µM | ≤ 0.01 µM | ≤ 0.01 µM
9 | Cc1nc(Nc2cccc(-c3cccc(-c4nc5cc(CN6CC[C@@H](C(=O)O)C6)cc(C#N)c5o4)c3C)c2C)c2ncc(CN3CC[C@](C)(O)C3)cc2n1 [Example 8, (R)-1-((7-cyano-2-(3′-(7-(((S)-3-hydroxy-3-methylpyrrolidin-1-yl)methyl)-2-methylpyrido[3,2-d]pyrimidin-4-ylamino)-2,2′-dimethylbiphenyl-3-yl)benzo[d]oxazol-5-yl)methyl)pyrrolidine-3-carboxylic Acid] | 0.01 to 0.1 µM | 0.01 to 0.1 µM | ≤ 0.01 µM | ≤ 0.01 µM
